Measured values as given in patent US6653455B1, “Crystallization of doxorubicin hydrochloride” (Mercian Corporation, priority 1998, dated 2003).
Where a name gives a salt, the structure may show the parent alone.

Columns and labels:
Format in all cases: physicochemical
[1] = Average particle diameter, microscopic method (Heywood circle-corresponding diameter); settings: 10 typical crystals on photograph, hydrochloride
Text: The average particle diameter is shown by a diameter of a circle having the same area as an injected area of the particle, a so-called Heywood diameter (circle-corresponding diameter) according to a microscopic method (injected image). A small amount of the crystals was put on a slide glass, and 1 to 2 drops of a hydrophilic surfactant (sesquioleic acid sorbitan) were fallen thereon to disperse them. It was photographed by means of a polarization microscope (photographing lens: 3.3 magnifications, objective lens: 20 magnifications) equipped with a photographing device. Optional 10 pieces of the typical crystals were selected on the photograph to measure a long diameter and a short diameter thereof An (projected) area of the particle was shown by long diameter×short diameter, and the particle diameter was shown by a diameter of a circle having the same area as that obtained above.

[2] = Hygroscopicity, cup method (weight change); settings: weight-increasing rate, 25° C., 50 to 60% RH, 15 minutes; crystals dried at 40° C. under vacuum; hydrochloride
Experimental: Determined by the following cup method. To be specific, about 15 to 20 mg of the sample was put in a cylindrical cup having a diameter of 6 mm and a depth of 6 mm and left standing at a fixed temperature (25° C.) and relative humidity (50 to 60% RH) for 15 minutes to measure a weight change, whereby the hygroscopicity was evaluated.
In the following respective examples, a weight-increasing rate of 0.40% or more is shown by an evaluation criterion that the hygroscopicity is large (−); a weight-increasing rate of 0.20% or more and less than 0.40% is shown by an evaluation criterion that the hygroscopicity is ;intermediate (±); and a weight-increasing rate of less than 0.20% is shown by an evaluation criterion that the hygroscopicity is small: (+).

[3] = Solubility test (dissolving time in water); settings: 50 mg sample in 5 ml water, 25° C., about 600 rounds/minute stirring, time until completely dissolved; hydrochloride
Experimental: A beaker of 20 ml (minor diameter: 30 mm) was charged with 5 ml of water and then 50 mg of a DOX.HCl crystal sample, and the sample was stirred at 25° C. and about 600 rounds/minute by means of a magnetic stirrer (diameter 6 mm×length 10 mm). Time consumed until the sample was completely dissolved was measured wile observing the dissolving state every 30 seconds with naked eyes.
The solubility test described above was carried out for a DXR.USP standard product (Lot J) (average particle diameter: 28 μm) as comparison and Examples 2, 46,51, 55, 56, 57 and 58, and the results thereof are shown in Table III.

| Average particle diameter [1] [μm] | Dissolving time [3] [min] | Structure (SMILES) | Hygroscopicity [2] |
| --- | --- | --- | --- |
| <4 | 14.5 to 15 | COc1cccc2c1C(=O)c1c(O)c3c(c(O)c1C2=O)C[C@@](O)(C(=O)CO)C[C@@H]3O[C@H]1C[C@H](N)[C@H](O)[C@H](C)O1 [Example 58, doxorubicin hydrochloride] | − (a weight-increasing rate of 0.40% or more is shown by an evaluation criterion that the hygroscopicity is large (−)) |
| 35 | 1.5 to 2 | COc1cccc2c1C(=O)c1c(O)c3c(c(O)c1C2=O)C[C@@](O)(C(=O)CO)C[C@@H]3O[C@H]1C[C@H](N)[C@H](O)[C@H](C)O1 [Example 57, doxorubicin hydrochloride] | ± (a weight-increasing rate of 0.20% or more and less than 0.40% is shown by an evaluation criterion that the hygroscopicity is ;intermediate (±)) |
| 37 | 1.5 to 2 | COc1cccc2c1C(=O)c1c(O)c3c(c(O)c1C2=O)C[C@@](O)(C(=O)CO)C[C@@H]3O[C@H]1C[C@H](N)[C@H](O)[C@H](C)O1 [Example 56, doxorubicin hydrochloride] | + (a weight-increasing rate of less than 0.20% is shown by an evaluation criterion that the hygroscopicity is small: (+)) |

Second part, the compound before the results:

| Structure (SMILES) | Average particle diameter [1] [μm] | Dissolving time [3] [min] | Hygroscopicity [2] |
| --- | --- | --- | --- |
| COc1cccc2c1C(=O)c1c(O)c3c(c(O)c1C2=O)C[C@@](O)(C(=O)CO)C[C@@H]3O[C@H]1C[C@H](N)[C@H](O)[C@H](C)O1 [Example 46, doxorubicin hydrochloride] | 86 | 1.5 to 2 | + (a weight-increasing rate of less than 0.20% is shown by an evaluation criterion that the hygroscopicity is small: (+)) |
| COc1cccc2c1C(=O)c1c(O)c3c(c(O)c1C2=O)C[C@@](O)(C(=O)CO)C[C@@H]3O[C@H]1C[C@H](N)[C@H](O)[C@H](C)O1 [Example 55, doxorubicin hydrochloride] | 24 | 1.5 to 2 | + (a weight-increasing rate of less than 0.20% is shown by an evaluation criterion that the hygroscopicity is small: (+)) |
| COc1cccc2c1C(=O)c1c(O)c3c(c(O)c1C2=O)C[C@@](O)(C(=O)CO)C[C@@H]3O[C@H]1C[C@H](N)[C@H](O)[C@H](C)O1 [Example 2, doxorubicin hydrochloride] | <4 | 4 to 4.5 | − (a weight-increasing rate of 0.40% or more is shown by an evaluation criterion that the hygroscopicity is large (−)) |
